Holding throughout (type): nucleic-acid assay
Experiment [1] relates to Nucleic Acid. Briefly: Binding activity at antiterminator RNA AM1A relative to methyl 2-((4R,5S)-4-benzyl-2-oxo-5-((2-phenylacetoxy)methyl)oxazolidin-3-yl)benzoate after 10 mins.
Experiment [2] deals with Nucleic Acid. Description: Binding activity at antiterminator RNA AM1A(C11U) after 10 mins.
For experiment [3], the target named is Nucleic Acid. Description: Binding activity at antiterminator RNA AM1A after 10 mins.
In experiment [4] the test system is Nucleic Acid. Briefly: Binding activity at antiterminator RNA AM1A upto 200 uM after 10 mins.
Experiment [5] relates to Nucleic Acid. Description: Binding activity at antiterminator RNA AM1A(C11U) upto 200 uM after 10 mins.
Experiment [6] deals with Nucleic Acid. Briefly: Binding activity at antiterminator RNA AM1A(C11U) after 120 mins.

Activity calls are given as the source filed them. The rule behind the calls is not given here.

In general, Kd refers to the concentration at which binding is half-saturated. A high value points to lower affinity.

For the compound `CCCCCCCC(=O)OC[C@H]1OC(=O)N(c2ccc(OC)cc2)[C@@H]1CCCc1ccccc1`, the Activity in experiment [1] was determined as 0.65; in experiment [2] it was 0.72.

For `COC(=O)c1ccccc1N1C(=O)O[C@H](COC(=O)Cc2ccccc2)[C@H]1CC1CCCCC1`, the Activity in experiment [1] is 0.39; in experiment [2], 0.77.

With `CCCCCCCC(=O)OC[C@H]1OC(=O)N(CCCC)[C@@H]1CC1CCCCC1`, the Activity stood at 0.73 in experiment [1] and 1.05 in experiment [2].

Consider `COc1ccc(N2C(=O)O[C@H](COC(=O)Cc3ccccc3)[C@H]2Cc2ccccc2)cc1`, for which the Kd in experiment [3] was 3.4 µM; in experiment [2], 25 µM. The Activity in experiment [1] came out at 0.81; in experiment [2], 0.23.

For the compound `CCCCN1C(=O)O[C@H](COC(=O)Cc2ccccc2)[C@H]1CC1CCCCC1`, the Activity in experiment [1] stood at 0.58; in experiment [2], 0.78.

`COc1ccc(N2C(=O)O[C@H](COC(=O)C3CCCCC3)[C@H]2CC2CCCCC2)cc1`: the Activity in experiment [1] came to 0.61; in experiment [2] it was 0.82.

Consider `CCCCCCCC(=O)OC[C@H]1OC(=O)N(c2ccc(OC)cc2)[C@@H]1CC1CCCCC1`, for which the Activity was 0.58 in experiment [1] and 0.78 in experiment [2].

`CCCCCCCC(=O)OC[C@H]1OC(=O)N[C@@H]1Cc1ccccc1`: the result in experiment [4] and in experiment [5] was inactive.

In the case of `CCCCN1C(=O)O[C@H](COC(=O)C2CCCCC2)[C@H]1CCCc1ccccc1`, the Activity in experiment [1] was determined as 0.65; in experiment [2], 0.78.

For `CCCCN1C(=O)O[C@H](COC(=O)Cc2ccccc2)[C@H]1Cc1ccccc1`, the Activity in experiment [1] worked out at 0.48; in experiment [2], 0.36.

Turning to `COC(=O)c1ccccc1N1C(=O)O[C@H](COC(=O)C2CCCCC2)[C@H]1CC1CCCCC1`, the Activity in experiment [1] came to 0.61; in experiment [2], 0.8.

As to `CCCCCCCC(=O)OC[C@H]1OC(=O)N(CCCC)[C@@H]1CCCc1ccccc1`, the Activity in experiment [1] came to 0.56; in experiment [2] it was 0.69.

As for `COc1ccc(N2C(=O)O[C@H](COC(=O)Cc3ccccc3)[C@H]2CC2CCCCC2)cc1`, the Activity in experiment [1] is 0.71; in experiment [2], 1.05.

For the compound `COC(=O)c1ccccc1N1C(=O)O[C@H](COC(=O)Cc2ccccc2)[C@H]1Cc1ccccc1`, the values for the Activity in experiment [3] and in experiment [2] were 1 and 1.47, respectively.

On to `COC(=O)c1ccccc1N1C(=O)O[C@H](COC(=O)C2CCCCC2)[C@H]1Cc1ccccc1`, for which the Activity was determined as 0.64 in experiment [1] and 1.19 in experiment [2].

`CCCCCCCC(=O)OC[C@H]1OC(=O)N(c2ccccc2C(=O)OC)[C@@H]1Cc1ccccc1`: the Activity in experiment [1] was 1.19; in experiment [2] it was 1.06.

Turning to `CCCCCCCC(=O)OC[C@H]1OC(=O)N(c2ccccc2C(=O)OC)[C@@H]1CC1CCCCC1`, the Activity amounted to 0.47 in experiment [1] and 0.97 in experiment [2].

Regarding `CCCCN1C(=O)O[C@H](COC(=O)Cc2ccccc2)[C@H]1CCCc1ccccc1`, the figures for the Activity in experiment [1] and in experiment [2] were 0.72 and 0.7, respectively.

For the compound `CCCCCCCC(=O)OC[C@H]1OC(=O)N(c2ccc(OC)cc2)[C@@H]1Cc1ccccc1`, the results for the Activity in experiment [1] and in experiment [2] were 0.43 and 0.68, respectively.

Take `COC(=O)c1ccccc1N1C(=O)O[C@H](COC(=O)C2CCCCC2)[C@H]1CCCc1ccccc1`: the Activity in experiment [1] amounted to 0.71; in experiment [2], 0.78.

For the compound `COc1ccc(N2C(=O)O[C@H](COC(=O)C3CCCCC3)[C@H]2CCCc2ccccc2)cc1`, the Activity is 0.64 in experiment [1] and 0.7 in experiment [2].

In the case of `O=C(Cc1ccccc1)OC[C@H]1OC(=O)N[C@@H]1Cc1ccccc1`, the dissociation constant Kd in experiment [3] was 9 µM; in experiment [2] it was 125 µM.

Compound `COc1ccc(N2C(=O)O[C@H](COC(=O)Cc3ccccc3)[C@H]2CCCc2ccccc2)cc1` displayed an Activity in experiment [1] of 0.75.

Consider `CCCCCCCC(=O)OC[C@H]1OC(=O)N(CCCC)[C@@H]1Cc1ccccc1`, for which the Activity in experiment [1] was determined as 1.16; in experiment [2], 1.37.

Take `COC(=O)c1ccccc1N1C(=O)O[C@H](COC(=O)Cc2ccccc2)[C@H]1CCCc1ccccc1`: the Activity in experiment [1] was 0.79; in experiment [2], 1.12.

For the compound `CCCCCCCC(=O)OC[C@H]1OC(=O)N(c2ccccc2C(=O)OC)[C@@H]1CCCc1ccccc1`, the Activity in experiment [1] worked out at 1.21; in experiment [2], 0.76.

For `COc1ccc(N2C(=O)O[C@H](COC(=O)C3CCCCC3)[C@H]2Cc2ccccc2)cc1`, the results for the Activity in experiment [1] and in experiment [2] were 0.73 and 0.77, respectively.

For the compound `CCCCN1C(=O)O[C@H](COC(=O)C2CCCCC2)[C@H]1Cc1ccccc1`, the Activity was 0.48 in experiment [1] and 0.59 in experiment [2].

For the compound `CCCCN1C(=O)O[C@H](COC(=O)C2CCCCC2)[C@H]1CC1CCCCC1`, the Activity in experiment [1] came to 0.54; in experiment [2] it was 0.7.

For `CCCCCCC(=O)OC[C@H]1OC(=O)N[C@@H]1Cc1ccccc1`, the Kd came out at 10 µM in experiment [3] and 14.3 µM in experiment [6].

The values above are taken from ChEMBL document CHEMBL1138909, “Structure-activity studies of oxazolidinone analogs as RNA-binding agents” (Bioorg Med Chem Lett, 2006).
